Reference: US20260262643A1, “HERBICIDAL BENZOXAZINES” (FMC CORPORATION, priority 2022, published 2026)

Assays:
[1] = test system: barnyardgrass; test: Test C preemergence; assay type: in vivo, Echinochloa crusgalli
Procedure, shortened: (§1)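 Test material, in non-phytotoxic solvent with surfactant, was sprayed on the soil directly after seeding (preemergence) or on young plants of 2–10 cm with one to two leaves (postemergence). Greenhouse, 10 days; 0–100 visual control scale.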

[2] = test system: blackgrass; test: Test C preemergence; assay type: in vivo, Alopecurus myosuroides
Procedure, shortened: as §1

[3] = test system: corn; test: Test C preemergence; assay type: in vivo, Zea mays
Procedure, shortened: as §1

[4] = test system: green foxtail; test: Test C preemergence; assay type: in vivo, Setaria viridis
Procedure, shortened: as §1

[5] = test system: kochia; test: Test C preemergence; assay type: in vivo, Bassia scoparia
Procedure, shortened: as §1

[6] = test system: oat, wild; test: Test C preemergence; assay type: in vivo, Avena fatua
Procedure, shortened: as §1

[7] = test system: pigweed, palmer; test: Test C preemergence; assay type: in vivo, Amaranthus palmeri
Procedure, shortened: as §1

[8] = test system: ragweed; test: Test C preemergence; assay type: in vivo, Ambrosia artemisiifolia
Procedure, shortened: as §1

[9] = test system: ryegrass, Italian; test: Test C preemergence; assay type: in vivo, Lolium multiflorum
Procedure, shortened: as §1

[10] = test system: soybean; test: Test C preemergence; assay type: in vivo, Glycine max
Procedure, shortened: as §1

[11] = test system: wheat; test: Test C preemergence; assay type: in vivo, Triticum aestivum
Procedure, shortened: as §1

[12] = test system: barnyardgrass; test: Test C postemergence; assay type: in vivo, Echinochloa crusgalli; details: 10 days, 0 to 100 scale (0 no effect, 100 complete control)
Procedure, shortened: as §1

[13] = test system: blackgrass; test: Test C postemergence; assay type: in vivo, Alopecurus myosuroides; details: 10 days, 0 to 100 scale (0 no effect, 100 complete control)
Procedure, shortened: as §1

[14] = test system: corn; test: Test C postemergence; assay type: in vivo, Zea mays; details: 10 days, 0 to 100 scale (0 no effect, 100 complete control)
Procedure, shortened: as §1

[15] = test system: green foxtail; test: Test C postemergence; assay type: in vivo, Setaria viridis; details: 10 days, 0 to 100 scale (0 no effect, 100 complete control)
Procedure, shortened: as §1

[16] = test system: kochia; test: Test C postemergence; assay type: in vivo, Bassia scoparia; details: 10 days, 0 to 100 scale (0 no effect, 100 complete control)
Procedure, shortened: as §1

[17] = test system: oat, wild; test: Test C postemergence; assay type: in vivo, Avena fatua; details: 10 days, 0 to 100 scale (0 no effect, 100 complete control)
Procedure, shortened: as §1

[18] = test system: pigweed, palmer; test: Test C postemergence; assay type: in vivo, Amaranthus palmeri; details: 10 days, 0 to 100 scale (0 no effect, 100 complete control)
Procedure, shortened: as §1

[19] = test system: ragweed; test: Test C postemergence; assay type: in vivo, Ambrosia artemisiifolia; details: 10 days, 0 to 100 scale (0 no effect, 100 complete control)
Procedure, shortened: as §1

[20] = test system: ryegrass, Italian; test: Test C postemergence; assay type: in vivo, Lolium multiflorum; details: 10 days, 0 to 100 scale (0 no effect, 100 complete control)
Procedure, shortened: as §1

[21] = test system: soybean; test: Test C postemergence; assay type: in vivo, Glycine max; details: 10 days, 0 to 100 scale (0 no effect, 100 complete control)
Procedure, shortened: as §1

[22] = test system: wheat; test: Test C postemergence; assay type: in vivo, Triticum aestivum; details: 10 days, 0 to 100 scale (0 no effect, 100 complete control)
Procedure, shortened: as §1

[23] = test system: galium; test: Test C postemergence; assay type: in vivo, Galium aparine; details: 10 days, 0 to 100 scale (0 no effect, 100 complete control)
Procedure, shortened: as §1

[24] = test system: horseweed; test: Test C postemergence; assay type: in vivo, Erigeron canadensis; details: 10 days, 0 to 100 scale (0 no effect, 100 complete control)
Procedure, shortened: as §1

[25] = test system: barnyardgrass; test: Test D flooded paddy test; assay type: in vivo, Echinochloa crus-galli; details: 250 g ai/ha, applied to paddy water, visual rating after 13 to 14 days, scale 0 to 100 (0 no effect, 100 complete control)
Procedure, shortened: (§2)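 Post-flood water application at the 2-leaf stage; 3 cm flood depth kept constant; visual control rating 0–100 after 13–14 days greenhouse growth.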

[26] = test system: ducksalad; test: Test D flooded paddy test; assay type: in vivo, Heteranthera limosa; details: 250 g ai/ha, applied to paddy water, visual rating after 13 to 14 days, scale 0 to 100 (0 no effect, 100 complete control)
Procedure, shortened: as §2

[27] = test system: rice; test: Test D flooded paddy test; assay type: in vivo, Oryza sativa; details: 250 g ai/ha, applied to paddy water, visual rating after 13 to 14 days, scale 0 to 100 (0 no effect, 100 complete control)
Procedure, shortened: as §2

[28] = test system: sedge, umbrella; test: Test D flooded paddy test; assay type: in vivo, Cyperus difformis; details: 250 g ai/ha, applied to paddy water, visual rating after 13 to 14 days, scale 0 to 100 (0 no effect, 100 complete control)
Procedure, shortened: as §2

[29] = 500 g ai/ha, preemergence, 0 to 100 scale (0 no effect, 100 complete control)
[30] = Preemergence, 125 g ai/ha, 0 to 100 scale, 0 no effect, 100 complete control

## CC(C)c1ncn(-c2ccc([S+](C)[O-])c(C(=O)N3C[C@H](C)Oc4c(Cl)cccc43)c2)n1 (stereo partly shown) [Compound 394]
[1]; [29]
  Barnyardgrass plant response rating: 100
[1]; [30]
  Plant response rating, Barnyardgrass: 70
[2]; [29]
  Blackgrass plant response rating: 90
[2]; [30]
  Plant response rating, Blackgrass: 30
[3]; [29]
  Corn plant response rating: 30
[3]; [30]
  Plant response rating, Corn: 20
[4]; [29]
  Foxtail, Green plant response rating: 100
[4]; [30]
  Plant response rating, Foxtail, Green: 100
[5]; [29]
  Kochia plant response rating: 100
[5]; [30]
  Plant response rating, Kochia: 90
[6]; [29]
  Oat, Wild plant response rating: 90
[6]; [30]
  Plant response rating, Oat, Wild: 30
[7]; [29]
  Pigweed, Palmer plant response rating: 100
[7]; [30]
  Plant response rating, Pigweed, Palmer: 100
[8]; [29]
  Ragweed plant response rating: 50
[8]; [30]
  Plant response rating, Ragweed: 0
[9]; [29]
  Ryegrass, Italian plant response rating: 90
[9]; [30]
  Plant response rating, Ryegrass, Italian: 60
[10]; [29]
  Soybean plant response rating: 100
[10]; [30]
  Plant response rating, Soybean: 20
[11]; [29]
  Wheat plant response rating: 80
[11]; [30]
  Plant response rating, Wheat: 20
[12]; 500 g ai/ha, postemergence
  Plant response rating, Barnyardgrass: 70
[12]; Postemergence, 125 g ai/ha
  Plant response rating, Barnyardgrass: 50
[13]; 500 g ai/ha, postemergence
  Plant response rating, Blackgrass: 70
[13]; Postemergence, 125 g ai/ha
  Plant response rating, Blackgrass: 50
[14]; 500 g ai/ha, postemergence
  Plant response rating, Corn: 50
[14]; Postemergence, 125 g ai/ha
  Plant response rating, Corn: 20
[15]; 500 g ai/ha, postemergence
  Plant response rating, Foxtail, Green: 90
[15]; Postemergence, 125 g ai/ha
  Plant response rating, Foxtail, Green: 30
[16]; 500 g ai/ha, postemergence
  Plant response rating, Kochia: 90
[16]; Postemergence, 125 g ai/ha
  Plant response rating, Kochia: 90
[17]; 500 g ai/ha, postemergence
  Plant response rating, Oat, Wild: 70
[17]; Postemergence, 125 g ai/ha
  Plant response rating, Oat, Wild: 50
[18]; 500 g ai/ha, postemergence
  Plant response rating, Pigweed, Palmer: 80
[18]; Postemergence, 125 g ai/ha
  Plant response rating, Pigweed, Palmer: 80
[19]; 500 g ai/ha, postemergence
  Plant response rating, Ragweed: 70
[19]; Postemergence, 125 g ai/ha
  Plant response rating, Ragweed: 70
[20]; 500 g ai/ha, postemergence
  Plant response rating, Ryegrass, Italian: 90
[20]; Postemergence, 125 g ai/ha
  Plant response rating, Ryegrass, Italian: 50
[21]; 500 g ai/ha, postemergence
  Plant response rating, Soybean: 100
[21]; Postemergence, 125 g ai/ha
  Plant response rating, Soybean: 100
[22]; 500 g ai/ha, postemergence
  Plant response rating, Wheat: 50
[22]; Postemergence, 125 g ai/ha
  Plant response rating, Wheat: 30
[23]; 500 g ai/ha, postemergence
  Plant response rating, Galium: 100
[23]; Postemergence, 125 g ai/ha
  Plant response rating, Galium: 100
[24]; 500 g ai/ha, postemergence
  Plant response rating, Horseweed: 20
[24]; Postemergence, 125 g ai/ha
  Plant response rating, Horseweed: 0
[25]
  Plant response rating, Barnyardgrass (Flood): 15
[26]
  Plant response rating, Ducksalad (Flood): 10
[27]
  Plant response rating, Rice (Flood): 0
[28]
  Plant response rating, Sedge, Umbrella (Flood): 0
